Experimental data published in US20240067603A1, “CUBANYL BIGUANIDE COMPOUNDS” (REGENTS OF THE UNIVERSITY OF MINNESOTA, priority 2020, published 2024).
Where two headings read alike, the source gives them in different places.

Key:
CYP3A4 [1] = target: T1, CYP3A4 (Homo sapiens, UniProt P08684); design: purchased Corning; host or cells: insect cells (microsomes); details: inhibiting EET biosynthesis; background statement; cited from earlier work
AMPKα = AMPKα phosphorylation (Thr172) in MCF-7 cells, Western blotting; assay type: cell-based, human; details: 10 μM, with and without serum, FIG. 7
Experimental: FIG. 7. Effect of HCB on MCF-7 AMPKα phosphorylation (Thr172). MCF-7 cells were grown in complete media to 70% confluency and treated with 10 μM HCB. Cells were harvested at varied time (0-24 hr) and total proteins were extracted and analyzed by Western blotting. For 0% serum experiment, complete media was replaced with serum, phenol red and antibiotics free media 16 hours before treatment. Quantitation results are expressed as mean±S.D. (n=3, * indicates statistically significant difference, p<0.05). MCF-7 cells were grown in complete media (10% serum) to 80% confluence. Left panel: HCB was added to a final concentration of 10 μM in complete media; Right panel: complete media was replaced with serum free media and serum starved for 16 hours before HCB was added to a final concentration of 10 μM. At indicated time points after the addition of HCB, cells were harvested and analyzed by Western blotting. AMPK activation was reported as fractional Thr172 phosphorylation±S.D. (n=3, * indicates statistically significant difference from control).

CYP3A4 [2] = target: T1, CYP3A4; assay: CYP3A4 Supersome mediated EET biosynthesis; assay type: biochemical; design: purchased Corning; host or cells: insect cells (microsomes)
Experimental: FIG. 1. Effects of HCB on CYP3A4 Supersome™ mediated EET biosynthesis. A 50 ul reaction in a 1.5 ml microcentrifuge tube contains the following components: arachidonic acid (60 μM), NDAPH (2 mM), DMSO or drug, CYP3A4 Supersome™ (1 μM) in potassium phosphate buffer (pH=7.4). The reaction was initiated by the addition of Supersome™ to the reaction mixture. After incubation at 37° C. for 30 minutes, 50 ul of acetonitrile spiked with 13C-EET internal standards was added and vortexed vigorously to terminate the reaction. Microcentrifuge tubes were centrifuged at 16,000×rpm for 10 min to precipitate proteins and other insoluble debris and 80 ul supernatant was transferred into HPLC vials and analyzed by an LC-MS as described previously (1). Results are expressed as mean±S.D. (n=3).
FIG. 2. Effects of DCB and HCB on CYP3A4 Supersome™ mediated EET biosynthesis. A 0.5 ml reaction in a 10 ml glass test tube contains the following components: arachidonic acid ([…]), NDAPH (2 mM), DMSO or drug solution (0.5 μl), CYP3A4 Supersome™ (80 nM) and 450.5 ul potassium phosphate buffer (pH=7.4). The reaction was initiated by the addition of Supersome™ to the rest. After incubation at 37° C. for 30 minutes, 0.5 ml of dichloromethane was added and vortexed vigorously to terminate the reaction. Organic phase and aqueous phase were separated by centrifugation at 3,000×rpm for 10 minutes. Two hundred microliters of the organic phase was withdrawn and evaporated to dryness. The residues were reconstituted with 20 ul methanol containing ^13C-EET internal standards and analyzed by an LC-MS as described previously (1). Results are expressed as mean±S.D. (n=3, * indicates a statistically significant difference from the control).
Recombinant Microsomal CYP-mediated EET Biosynthesis. CYP Supersomes™ (Corning, NY) (1 μM, final concentration) were incubated at 37° C. for 30 min in the presence of AA (120 μM) in 50 μl potassium phosphate buffer, (50 mM, pH 7.4), containing 1 mM EDTA and 1 mM NADPH. Reactions were terminated by addition of 50 μL of acetonitrile spiked with ^13C-EET internal standards followed by vigorous vortexing. After centrifugation at 16,000×rpm for 10 minutes to precipitate proteins and other insoluble debris and 80 μL supernatant was transferred into HPLC vials and analyzed by with an LC-ESI/MRM/MS method.
LC-ESI/MRM/MS Method for EET Measurement. EETs were measured by an LC-ESI/MRM/MS analytical method on a ThermoFisher Vantage triple quadrupole mass spectrometer (ThermoFisher, San Jose, CA) coupled with an UltiMate 3000 HPLC (ThermoFisher, San Jose, CA), using argon as the collision gas. Negative ion monitoring was performed at the following diagnostic product ions: 319 m/z→155 m/z for 8,9-EET; 319 m/z→179 m/z for 11,12-EET; 319 m/z→219 m/z for 14,15-EET; 339 m/z→163 m/z for 8,9-[^13C-20]EET; 339 m/z→233 m/z for 11,12-[^13C-20]EET; and 339 m/z→259 m/z for 14,15-[^13C-20]EET. Base-line resolution of EET regioisomers was achieved on a Phenomenex Luna C18 (2) reverse phase capillary column (250×0.5 mm, 5-μm particles) using the following mobile phase combinations: isocratic 5% B for 5 min, gradient 5-70% B for 5 min, hold at 70% for 30 min and then 95% for 10 min; A: 0.01% acetic acid in water, B: 0.01% acetic acid in acetonitrile; 10 μl/min flow rate. A standard curve was obtained by linear regression of the peak area ratio of authentic EET regioisomers against internal standards. The amount of EETs in samples was calculated according to the standard curve.

T1 sequence (P08684 whole entry): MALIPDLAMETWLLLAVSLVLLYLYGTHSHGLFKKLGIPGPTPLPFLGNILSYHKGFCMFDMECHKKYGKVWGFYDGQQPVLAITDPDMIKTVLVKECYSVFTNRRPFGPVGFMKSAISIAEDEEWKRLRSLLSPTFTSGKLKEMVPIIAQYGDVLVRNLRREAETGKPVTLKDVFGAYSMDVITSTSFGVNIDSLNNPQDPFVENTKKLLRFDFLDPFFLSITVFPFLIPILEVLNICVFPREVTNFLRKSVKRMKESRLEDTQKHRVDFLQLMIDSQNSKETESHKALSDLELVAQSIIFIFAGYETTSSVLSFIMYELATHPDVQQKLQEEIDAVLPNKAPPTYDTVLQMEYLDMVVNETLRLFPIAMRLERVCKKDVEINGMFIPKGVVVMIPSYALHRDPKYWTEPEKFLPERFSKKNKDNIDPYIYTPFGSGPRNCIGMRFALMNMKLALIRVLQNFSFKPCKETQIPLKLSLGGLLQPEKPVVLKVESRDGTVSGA

Row | Structure (SMILES) | fold more potent than metformin (CYP3A4 [1]) | AMPK phosphorylation (AMPKα) | IC50 (CYP3A4 [2]; (±)8,9-EET, Example B text, read-out: IC50, CYP3A4 biosynthesis of (±)8,9-EET) | IC50 (CYP3A4 [2]; (±)11,12-EET, Example B text, read-out: IC50, CYP3A4 biosynthesis of (±)11,12-EET) | IC50 (CYP3A4 [2]; (±)14,15-EET, Example B text, read-out: IC50, CYP3A4-mediated biosynthesis of (±)14,15-EET) | Ki (CYP3A4 [2]; (±)-14,15-EET, read-out: Ki, inhibition of biosynthesis of (±)-14,15-EET) | IC50 (CYP3A4 [2]; FIG. 1, (±)8,9-EET, curve fitting, read-out: IC50 for (±)8,9-EET biosynthesis) | IC50 (CYP3A4 [2]; FIG. 1, (±)11,12-EET, curve fitting, read-out: IC50 for (±)11,12-EET biosynthesis) | IC50 (CYP3A4 [2]; FIG. 1, (±)14,15-EET, arachidonic acid 60 μM, CYP3A4 Supersome 1 μM, 30 min, curve fitting, read-out: IC50 for (±)14,15-EET biosynthesis) | fold more potent than HBB for inhibiting biosynthesis of (±)14,15-EET (CYP3A4 [2]; HCB vs HBB, CYP3A4)
1 | CCCCCCNC(=N)NC(=N)NCc1ccccc1 [HBB, N1-hexyl-N5-benzyl-biguanide] | 100 fold |  |  |  |  |  |  |  |  | 
2 | CCCCCCNC(=N)NC(=N)NCC12C3C4C5C3C1C5C42 (stereo not shown) [HCB, Hexyl Cubanomethyl Biguanide] |  | potent activation | 28 µM | 56 µM | 3.8 µM | 4.7 µM | 64.8 ± 6.5 µM | 26.5 ± 1.9 µM | 4.7 ± 0.2 µM | ~2.5 fold
